Key:
[1] = system: FGFR4-translocated Ba/F3 cells; test: cells; details: Mus musculus, BaF3, 72 h, read-out: IC50 proliferation, FGFR4 Ba/F3 cells
Method: (§1) Cell proliferation and viability were evaluated in parental Ba/F3 cells and TEL-FGFR1-4/FGFR mutation-translocated Ba/F3 cell lines.

parental Ba/F3 cells = test: cells; details: Mus musculus, BaF3, 72 h, read-out: IC50 proliferation, parental Ba/F3 cells
Method: as §1

[2] = Phase II FIGHT-202, patients; cited from earlier work
FGFR1 = details: printed as potency 'toward FGFRs' in the FGFR1 comparison; cited from earlier work

Structure (SMILES) | IC50 [1] | IC50 (parental Ba/F3 cells) | complete responses [2] | disease control rate [2] | objective response rate [2] | IC50 (FGFR1)
CCN1C(=O)N(c2c(F)c(OC)cc(OC)c2F)Cc2cnc3[nH]c(CN4CCOCC4)cc3c21 [pemigatinib] | 12 nM | > 5000 nM | 2.8% | 82.0% | 35.5% | 
